In PubChem BioAssay AID1845198 (Molecular Pharmacology Branch, DTP, NCI, 2023):

Tested on: 425362-245-T-J1 tumor spheroids, viability % test/control
Assay: Anticancer human tumor 425362-245-T-J1 patient-derived melanoma cell line growth inhibition
Conditions: spheroids with HUVEC and MSC; for IC50: curve of first compound; for viability, T/C: stronger effect = lower value
How it was run: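 Complex tumor spheroids combined malignant cells with endothelial cells and mesenchymal stem cells. DNA-damaging drugs and DNA repair inhibitors were tested alone and in combination, at half-log dilutions down from clinical Cmax (top 10 microM if Cmax unknown), 0.25% DMSO final.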
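Further: spheroids exposed to agents for 7 days.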

What does the source list for `O=C(c1cc(Cc2n[nH]c(=O)c3ccccc23)ccc1F)N1CCN(C(=O)C2CC2)CC1` + Cn1nnc2c(C(N)=O)ncn2c1=O?
IC50 (second compound 1 µM): 3.1 µM; IC50 (second compound 3.16 µM): 3.28 µM; IC50 (second compound 10 µM): 2.52 µM; IC50 (second compound 31.6 µM): 2.04 µM; IC50 (second compound 100 µM): 0.233 µM; viability, T/C (second compound 1 µM, first compound 0.0949 µM): 88.6%; viability, T/C (second compound 1 µM, first compound 0.3 µM): 86.2%; viability, T/C (second compound 1 µM, first compound 0.949 µM): 71.6%; viability, T/C (second compound 1 µM, first compound 3 µM): 55.6%; viability, T/C (second compound 1 µM, first compound 9.49 µM): 12%; viability, T/C (second compound 1 µM, first compound 30 µM): 6.69%; viability, T/C (second compound 3.16 µM, first compound 0.0949 µM): 97.8%; viability, T/C (second compound 3.16 µM, first compound 0.3 µM): 87.7%; viability, T/C (second compound 3.16 µM, first compound 0.949 µM): 83.5%; viability, T/C (second compound 3.16 µM, first compound 3 µM): 54.6%; viability, T/C (second compound 3.16 µM, first compound 9.49 µM): 12.8%; viability, T/C (second compound 3.16 µM, first compound 30 µM): 7.75%; viability, T/C (second compound 10 µM, first compound 0.0949 µM): 101%; viability, T/C (second compound 10 µM, first compound 0.3 µM): 85.2%; viability, T/C (second compound 10 µM, first compound 0.949 µM): 80.2%; viability, T/C (second compound 10 µM, first compound 3 µM): 45.8%; viability, T/C (second compound 10 µM, first compound 9.49 µM): 13.1%; viability, T/C (second compound 10 µM, first compound 30 µM): 6.66%; viability, T/C (second compound 31.6 µM, first compound 0.0949 µM): 96.5%; viability, T/C (second compound 31.6 µM, first compound 0.3 µM): 83.8%; viability, T/C (second compound 31.6 µM, first compound 0.949 µM): 69.7%; viability, T/C (second compound 31.6 µM, first compound 3 µM): 44.4%; viability, T/C (second compound 31.6 µM, first compound 9.49 µM): 6.18%; viability, T/C (second compound 31.6 µM, first compound 30 µM): 6.01%; viability, T/C (second compound 100 µM, first compound 0.0949 µM): 68.1%; viability, T/C (second compound 100 µM, first compound 0.3 µM): 43.8%; viability, T/C (second compound 100 µM, first compound 0.949 µM): 26.7%; viability, T/C (second compound 100 µM, first compound 3 µM): 10%; viability, T/C (second compound 100 µM, first compound 9.49 µM): 4.29%; viability, T/C (second compound 100 µM, first compound 30 µM): 3.96%

How did the IC50 (second compound 1 µM) turn out when `[2H]c1nc(C)nc([2H])c1-c1cc(NC[C@@H](C)c2cccc3c(C(=O)NC)ccnc23)ncn1` + Cn1nnc2c(C(N)=O)ncn2c1=O was run?
The IC50 was over 10 µM.

What about the IC50 (second compound 3.16 µM) of the same molecule?
The IC50 was over 10 µM.

What about the IC50 (second compound 10 µM) of the same molecule?
The IC50 was over 10 µM.

And the IC50 (second compound 31.6 µM)?
Its IC50 is over 10 µM.

What about the IC50 (second compound 100 µM) of the same molecule?
Its IC50 is over 10 µM.

What about the viability, T/C (second compound 1 µM, first compound 0.0316 µM) of the same molecule?
Its viability, T/C is 88.2%.

What about the viability, T/C (second compound 1 µM, first compound 0.1 µM) of the same molecule?
Its viability, T/C is 96.8%.

What about the viability, T/C (second compound 1 µM, first compound 0.316 µM) of the same molecule?
The viability, T/C was 95.9%.

And the viability, T/C (second compound 1 µM, first compound 1 µM)?
Its viability, T/C is 71.2%.

What about the viability, T/C (second compound 1 µM, first compound 3.16 µM) of the same molecule?
The viability, T/C was 93.4%.

What about the viability, T/C (second compound 1 µM, first compound 10 µM) of the same molecule?
Its viability, T/C is 76.9%.

What about the viability, T/C (second compound 3.16 µM, first compound 0.0316 µM) of the same molecule?
The viability, T/C was 108%.

And the viability, T/C (second compound 3.16 µM, first compound 0.1 µM)?
The viability, T/C was 91.8%.

And the viability, T/C (second compound 3.16 µM, first compound 0.316 µM)?
Its viability, T/C is 102%.

And the viability, T/C (second compound 3.16 µM, first compound 1 µM)?
The viability, T/C was 105%.

And the viability, T/C (second compound 3.16 µM, first compound 3.16 µM)?
Its viability, T/C is 109%.

What about the viability, T/C (second compound 3.16 µM, first compound 10 µM) of the same molecule?
Its viability, T/C is 94.4%.

What about the viability, T/C (second compound 10 µM, first compound 0.0316 µM) of the same molecule?
The viability, T/C was 99.2%.

What about the viability, T/C (second compound 10 µM, first compound 0.1 µM) of the same molecule?
Its viability, T/C is 114%.

What about the viability, T/C (second compound 10 µM, first compound 0.316 µM) of the same molecule?
Its viability, T/C is 110%.

What about the viability, T/C (second compound 10 µM, first compound 1 µM) of the same molecule?
Its viability, T/C is 107%.

And the viability, T/C (second compound 10 µM, first compound 3.16 µM)?
Its viability, T/C is 112%.

And the viability, T/C (second compound 10 µM, first compound 10 µM)?
Its viability, T/C is 84.2%.

And the viability, T/C (second compound 31.6 µM, first compound 0.0316 µM)?
The viability, T/C was 105%.

What about the viability, T/C (second compound 31.6 µM, first compound 0.1 µM) of the same molecule?
The viability, T/C was 113%.

What about the viability, T/C (second compound 31.6 µM, first compound 0.316 µM) of the same molecule?
Its viability, T/C is 104%.

What about the viability, T/C (second compound 31.6 µM, first compound 1 µM) of the same molecule?
The viability, T/C was 110%.

And the viability, T/C (second compound 31.6 µM, first compound 3.16 µM)?
Its viability, T/C is 101%.

And the viability, T/C (second compound 31.6 µM, first compound 10 µM)?
Its viability, T/C is 85.5%.

And the viability, T/C (second compound 100 µM, first compound 0.0316 µM)?
Its viability, T/C is 82.7%.

What about the viability, T/C (second compound 100 µM, first compound 0.1 µM) of the same molecule?
The viability, T/C was 91.3%.

And the viability, T/C (second compound 100 µM, first compound 0.316 µM)?
The viability, T/C was 87.4%.

And the viability, T/C (second compound 100 µM, first compound 1 µM)?
The viability, T/C was 86.5%.

What about the viability, T/C (second compound 100 µM, first compound 3.16 µM) of the same molecule?
Its viability, T/C is 88.2%.

And the viability, T/C (second compound 100 µM, first compound 10 µM)?
Its viability, T/C is 83.5%.
